Results: patent US20120148530A1, “Method for the treatment or prevention of virus infection using polybiguanide-based compounds” (Novaflux Biosciences, Inc., priority 2003, published 2012)

How the values were obtained:
[1] = test system: HeLa cells; assay: HeLa cell viability, MTT, 2 hr exposure; assay type: cell-based
Description: HeLa cells (ATCC designation CCL-2) were maintained in Dulbecco's Modified Eagle's medium (DMEM). […] All three cell types were cultured in media supplemented with 10% fetal bovine serum (FBS), […] (0.3 mg/ml), antibiotics (penicillin, streptomycin, and kanamycin at 0.04 mg/ml each), and 0.05% sodium bicarbonate.
(§1) The experiments described below were conducted to determine the activity and cytotoxicity of short chain compounds having one or two biguanide groups. […] The efficacy determinations were made using P4R5 cells, which allow for the detection of bacterial β-galactosidase activity upon release of viral tat protein into the parent HeLa cell.

[2] = test system: ME-180 cells; assay: ME-180 cell viability; assay type: cell-based
[3] = test system: Vk2/E6E7 cells; assay: Vk2/E6E7 cell viability
[4] = test system: HIV-1 IIIB; assay: HIV-1 IIIB viral binding/entry inhibition in P4R5 cells; assay type: cell-based
Description: (§2) To build on the information provided by the monomeric biguanide data a series of polybiguanide molecules were synthesized with varied linker length as described in Example 1. In these molecules the methylene spacer arms between the biguanide functionalities (X and Y in Forumla I) have been changed.
Antiviral assays include a viral binding/entry assay in which reporter cells such as P4R5 are incubated with virus in the presence of compound for two hours at which time the drug is washed off and the cells incubated for 48 hrs before measuring the intracellular production of β-galactosidase (Ojwang et al. 1995 Antimicrobial Agents and Chemotherapy 39:2426-2435). In cell-associated virus inhibition (CAI) assays, HIV-1111B infected SUP T1 cells are pelleted to remove cell free virus and incubated with each compound for ten minutes at 37° C. before a 1:10 dilution in media and incubation with P4R5 indicator cells for 48 hours before measuring β-galactosidase activity. In cell-free virus assays HIV-1IIIB or BaL were incubated with each compound for 10 minutes at 37° C. before a 1:100 dilution in RPM! 1640, and incubated for 2 hours with P4R5 cells, and subsequent assays for viral infectivity were performed 48 hours later using the β-galactosidase method.
Select compounds were assessed for their ability to inhibit events necessary for HIV-1 binding and entry.
The same strategy was tested using PEHMB.

[5] = test system: cell-free HIV-1; assay: Cell-free HIV-1 infectivity in P4R5 cells, β-galactosidase readout; assay type: cell-based; settings: 2 hr exposure of cells to compounds in the presence of virus
Description: as §1

[6] = test system: Primary vaginal keratinocytes; assay: Primary vaginal keratinocyte viability; assay type: cell-based, human
[7] = test system: P4R5 cells; assay: P4R5 cell viability, MTT
Description: as §2
As described above the effect of PEHMB and related compounds on P4R5 cell viability after a two-hour exposure to the compound was compared to the effects of control compounds such as N-9. […] To further evaluate the effect of this class of compound on various types of cells (in particular PEHMB P4-R5 cells, ME-180 cells (ATCC HTB-33; cervical epidermoid carcinoma), VK2/E6E7 human vaginal cell line (Fichorova et al. 1997 Biol. Reprod. 57:847-855), and human primary vaginal karatinocytes (isolated from tissues obtained from vaginal reconstructive surgery)) the compounds were incubated with the different cells for various lengths of time before assessment of cell viability.

[8] = test system: HIV-1 IIIB; assay: Modified viral binding inhibition assay: pre-treatment, wash, then HIV-1 IIIB challenge; assay type: cell-based; settings: 0.1% or 0.01%
Description: In a modified viral binding inhibition assay (VBI) assay, HIV-1-susceptible P4R5 cells were maintained for 1 or 2 hr in the presence of PEHMB (0.1% and 0.01%) and then washed extensively before challenge with HIV-1 IIIB.
HIV-1-susceptible target cells were incubated with PEHMB (0.1%) for 2 hr, washed extensively with PBS, and subsequently challenged with HIV-1 IIIB at 0, 0.5, 1, 2, 3, and 4 hours after washing.

[9] = target: T1, CXCR4 (Homo sapiens, UniProt P61073); assay: FACS analysis of CXCR4 on PM-1 cells; assay type: cell-based; settings: PEHMB 0.1%, BCD 0.3%, untreated 45%
T1 construct: host or cells: P4-R5 (P4-CCR5) cells, HeLa-derived
Description: (§3) After a 2 hr exposure to PEHMB (0.1%), P4-R5 cell presentation of CXCR4 was reduced from 98% to 29% (FIG. 6).
A similar experiment (FIG. 7) was performed using the PM-1 T lymphocyte cell line (Lusso et al. 1995 J. Virol 69:3712-3720). […] However, reductions in CD3 were not seen in response to compound exposure, indicating specificity of action with respect to PEHMB's impact on CXCR4 (data not shown).

[10] = target: T1, CXCR4; assay: FACS analysis of CXCR4 on P4-R5 cells; assay type: cell-based; settings: BCD 0.3%
Description: as §3

T1 sequence (P61073 whole entry): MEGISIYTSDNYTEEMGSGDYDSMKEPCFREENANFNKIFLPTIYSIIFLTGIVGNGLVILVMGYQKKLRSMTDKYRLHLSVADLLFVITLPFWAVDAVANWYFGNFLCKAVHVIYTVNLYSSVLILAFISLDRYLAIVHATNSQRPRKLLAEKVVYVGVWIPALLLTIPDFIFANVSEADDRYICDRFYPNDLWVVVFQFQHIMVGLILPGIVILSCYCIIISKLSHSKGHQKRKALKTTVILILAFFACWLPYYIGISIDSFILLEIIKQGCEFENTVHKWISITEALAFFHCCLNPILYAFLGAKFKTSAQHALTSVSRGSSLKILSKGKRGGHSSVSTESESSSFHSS

## xyleneylene bis-biguanide
[1]
  CC50 (%): 0.385%

## nonoxynol-9 [N-9]
[1]
  CC50 (%): 0.007%
[2]; 10 minute exposure
  CC50 % 10 minute exposure: 0.20%
[2]; 2 hr exposure
  CC50 % 2 hr exposure: 0.008%
[2]; 6 hr exposure
  CC50 % 6 hr exposure: 0.007%
[3]; 10 minute exposure
  CC50 % 10 minute exposure: 0.03%
[3]; 2 hr exposure
  CC50 % 2 hr exposure: 0.006%
[3]; 6 hr exposure
  CC50 % 6 hr exposure: 0.002%
[4]
  IC50: 0.003%
[4]; P4R5 cells, 2 hr exposure in the presence of HIV-1IIIB, Table 6
  IC50 (%): 0.005%
[4]; Table 3
  IC50 (%): 0.005%
[4]; Table 5
  IC50 (%): 0.005%
[5]
  IC50 (%): 0.005%
[6]
  CC50 % 2 hr exposure: 0.007%
[7]; MTT
  CC50: 0.003%
[7]; P4-R5 cells, 10 minute exposure
  CC50 % 10 minute exposure: 0.2%
[7]; P4-R5 cells, 2 hr exposure
  CC50 % 2 hr exposure: 0.008%
[7]; P4-R5 cells, 6 hr exposure
  CC50 % 6 hr exposure: 0.005%
[7]; P4R5 cell data (2 hr exposure), Table 6
  CC50 (%): 0.005%
[7]; P4R5 cells, 2 hr exposure, MTT (Table 3)
  CC50 (%): 0.007%
[7]; Table 5
  CC50 (%): 0.007%

## N=C(N)NC(=N)Nc1ccccc1 [1-phenyl biguanide]
[1]
  CC50 (%): 0.150%
[5]
  IC50 (%): 0.522%

## dextran sulfate
[8]
  residual antiviral activity after removal of compound: no residual antiviral activity

## OC[C@H]1O[C@@H]2O[C@H]3[C@H](O)[C@@H](O)[C@@H](O[C@H]4[C@H](O)[C@@H](O)[C@@H](O[C@H]5[C@H](O)[C@@H](O)[C@@H](O[C@H]6[C@H](O)[C@@H](O)[C@@H](O[C@H]7[C@H](O)[C@@H](O)[C@@H](O[C@H]8[C@H](O)[C@@H](O)[C@@H](O[C@H]1[C@H](O)[C@H]2O)O[C@@H]8CO)O[C@@H]7CO)O[C@@H]6CO)O[C@@H]5CO)O[C@@H]4CO)O[C@@H]3CO [BCD, β-cyclodextrin]
[9]
  CXCR4 presentation: 22%
[4]; PEHMB 0.1%, BCD 0.3%, HIV-1 strain IIIB
  remaining infectivity, % of mock-treated cells: 27%
[10]
  effect on CXCR4: no apparent effect
[7]
  cytotoxicity, FIG. 4A: non-cytotoxic

## [H]/N=C(/N)N/C(=N/[H])NCCc1ccccc1 [1-phenethyl biguanide]
[1]
  CC50 (%): 0.538%
